biological target: T1, HCV-NS5b (Hepatitis C virus genotype 1b, UniProt Q9WMX2); assay: HCV-NS5b Enzyme Assay; assay type: biochemical; conditions: 1 μM test compound; incorporation of [3H]-UTP, 37° C., 2 hours
T1 construct: The cloned fragment was missing the C terminus 21 amino acid residues; (His)6 (C); made in house; host or cells: XL-1 cells (E. coli)
Text: The coding sequence of NS5b protein was cloned by PCR from pFKI389luc/NS3-3′/ET as described by Lohmann, V., et al. (1999) Science 285, 110-113 using the following primers: • […] (SEQ. ID. NO. 1) • […] (SEQ. ID. NO. 2)
The cloned fragment was missing the C terminus 21 amino acid residues. The cloned fragment is inserted into an IPTG-inducible expression plasmid that provides an epitope tag (His)6 at the carboxy terminus of the protein.
The recombinant enzyme was expressed in XL-1 cells and after induction of expression, the protein was purified using affinity chromatography on a nickel-NTA column. Storage condition is 10 mM Tris-HCl pH 7.5, 50 mM NaCl, 0.1 mM EDTA, 1 mM DTT, 20% glycerol at −20° C.
The polymerase activity was assayed by measuring incorporation of radiolabeled UTP into a RNA product using a biotinylated, heteropolymeric template, which includes a portion of the HCV genome. Typically, the assay mixture […] contains 10 mM Tris-HCl (pH 7.5), 5 mM MgCl2, 0.2 mM EDTA, 10 mM KCl, 1 unit/μL RNAsin. 1 mM DTT, 10 μM each of NTP, including [^3H]-UTP, and 10 ng/μL biotinylated heteropolymeric template. 20× test compound in 2 μl's was then added as a 100% DMSO solution to achieve a final DMSO concentration of 5%. For IC50 determination a 10-point dose response was used. The compounds were serial diluted 2-fold […]. Typically for IC50's, compounds were tested starting at 50 uM or 2 μm depending on the potency. Reactions were started with addition of 10×NS5B in 4 μl's and allowed to incubate at 37° C. for 2 hours. Reactions were quenched with 8 μL of 100 mM EDTA and reaction mixtures (30 μL) were transferred to streptavidin-coated scintillation proximity microtiter plates (FlashPlates) and incubated at 4° C. overnight. Incorporation of radioactivity was determined by scintillation counting (cpm). The % Inhibition at a particular concentration was determined using the following equation, % Inhibition=100−[100*(cpm with inhibitor−bg)/(cpm with no inhibitor−bg)] where bg was the background with no enzyme.

| Compound | inhibition at 1 µM [%] | % inhibition @ 1 μM [%] |
| --- | --- | --- |
| Cc1nc(C)c(-c2nc3ccc(-c4cc5ccc(C(=O)O)cc5n4CC(=O)N4CCCCC4)cc3cc2C2CCCCC2)s1 [Compound 216, 1-(2-oxo-2-piperidin-1-yl-ethyl)-2-[2-(2,4-dimethylthiazol-5-yl)-3-cyclohexylquinolin-6-yl]-1H-indole-6-carboxylic acid] | 98.8 |  |
| Cc1nc(C)c(-c2ccc3cc(-c4c(C5CCCCC5)c5ccc(C(=O)O)cc5n4CC(=O)NCC(=O)O)ccc3n2)s1 [Compound 213, 1-[(N-carboxymethycarbamoyl)-methyl]-[2-(2,4-dimethyl-thiazol-5-yl)-quinolin-6-yl]-3-cyclohexyl-1H-indole-6-carboxylic acid] |  | 92.1 |
| Cc1nc(C)c(-c2ccc3cc(-c4c(C5CCCCC5)c5ccc(C(=O)O)cc5n4CCCN(C)C)ccc3n2)s1 [Compound 286, 3-Cyclohexyl-1-(3-dimethylamino-propyl)-2-[2-(2,4-dimethyl-thiazol-5-yl)-quinolin-6-yl]-1H-indole-6-carboxylic acid] | 85.7 |  |
| O=C(O)c1ccc2c(C3CCCCC3)c(-c3ccc4nc(-c5cnccn5)ccc4c3)n(CC(=O)N3CCOCC3)c2c1 [Compound 218, 1-[N-morpholinocarbonylmethyl]-2-[2-(pyrazin-2-yl)-quinolin-6-yl]-3-cyclohexyl-1H-indole-6-carboxylic acid] |  | 96.2 |
| COc1ccc(-c2ccc(Cl)cc2)c(-c2ccc3cc(-c4c(C5CCCCC5)c5ccc(C(=O)O)cc5n4CC(=O)N4CCOCC4)ccc3n2)c1 [Compound 203, 1-[N-morpholinocarbonylmethyl]-2-[2-(4′-chloro-4-methoxy-biphen-2-yl)-quinolin-6-yl]-3-cyclohexyl-1H-indole-6-carboxylic acid] | 98.7 |  |
| NC(=O)c1cc(-c2ccc3cc(-c4c(C5CCCCC5)c5ccc(C(=O)O)cc5n4CC(=O)N4CCOCC4)ccc3n2)ccc1O [Compound 207, 1-[N-morpholinocarbonylmethyl]-2-[2-(3-amido-4-hydroxy-phenyl)-quinolin-6-yl]-3-cyclohexyl-1H-indole-6-carboxylic acid] | 95.7 |  |
| COc1ccc(-c2ccc(Cl)cc2)c(-c2ccc3cc(-c4[nH]c5cc(C(=O)O)ccc5c4C4CCCCC4)ccc3n2)c1 [Compound 200, 2-[2-(4′-chloro-4-methoxy-biphenyl-2-yl)-quinolin-6-yl]-3-cyclohexyl-1H-indole-6-carboxylic acid] | 96.2 |  |
| Cc1nc(C)c(-c2ccc3cc(-c4c(C5CCCCC5)c5ccc(C(=O)O)cc5n4CC(=O)NCCN4CCOCC4)ccc3n2)s1 [Compound 237, 3-Cyclohexyl-2-[2-(2,4-dimethyl-thiazol-5-yl)-quinolin-6-yl]-1-[(2-morpholin-4-yl-ethylcarbamoyl)-methyl]-1H-indole-6-carboxylic acid] | 94.7 |  |
| COC(=O)c1ccc2c(C3CCCCC3)c(-c3ccc4nc(-c5cc(OC)ccc5-c5ccc(Cl)cc5)ccc4c3)n(CC(=O)O)c2c1 [Compound 201, 1-carboxymethyl-2-[2-(4′-chloro-4-methoxy-biphenyl-2-yl)-quinolin-6-yl]-3-cyclohexyl-1H-indole-6-carboxylic acid methyl ester] | 77.7 |  |
| COc1ccccc1-c1ccc(-c2c(C3CCCCC3)c3ccc(C(=O)O)cc3n2CC(=O)N2CCOCC2)cc1 [Compound 311, 3-Cyclohexyl-2-(2′-methoxy-biphenyl-4-yl)-1-(2-morpholin-4-yl-2-oxo-ethyl)-1H-indole-6-carboxylic acid] | 102 |  |
| Cc1nc(C)c(-c2ccc3cc(-c4[nH]c5cc(C(=O)O)ccc5c4C4CCCCC4)ccc3n2)s1 [Compound 333, 3-Cyclohexyl-2-[2-(2,4-dimethyl-thiazol-5-yl)-quinolin-6-yl]-1H-indole-6-carboxylic acid] | 95.1 |  |
| O=C(O)c1ccc2c(C3CCCCC3)c(-c3ccc4nc(-c5ccc(-n6ccnc6)cc5)ccc4c3)n(CC(=O)N3CCOCC3)c2c1 [Compound 209, 1-[N-morpholinocarbonylmethyl]-2-[2-(4-(1H-imidazolyl)phenyl)-quinolin-6-yl]-3-cyclohexyl-1H-indole-6-carboxylic acid] |  | 98.5 |
| COc1cccc(-c2ccc(-c3c(C4CCCCC4)c4ccc(C(=O)O)cc4n3CC(=O)N3CCOCC3)cc2)c1 [Compound 309, 3-Cyclohexyl-2-(3′-methoxy-biphenyl-4-yl)-1-(2-morpholin-4-yl-2-oxo-ethyl)-1H-indole-6-carboxylic acid] | 98.8 |  |
| Cc1nc(C)c(-c2ccc3cc(-c4c(C5CCCCC5)c5ccc(C(=O)O)cc5n4Cc4ccc(C(=O)O)cc4)ccc3n2)s1 [Compound 292, 1-(4-Carboxy-benzyl)-3-cyclohexyl-2-[2-(2,4-dimethyl-thiazol-5-yl)-quinolin-6-yl]-1H-indole-6-carboxylic acid] | 98.7 |  |

Further lines, results first:

| inhibition at 1 µM [%] | % inhibition @ 1 μM [%] | Compound |
| --- | --- | --- |
| 97.1 |  | O=C(O)c1ccc2c(C3CCCCC3)c(-c3ccc4nc(-c5cccc(F)c5)ccc4c3)n(CC(=O)N3CCOCC3)c2c1 [Compound 261, 3-Cyclohexyl-2-[2-(3-fluoro-phenyl)-quinolin-6-yl]-1-(2-morpholin-4-yl-2-oxo-ethyl)-1H-indole-6-carboxylic acid] |
| 96.5 |  | Cc1ccsc1-c1ccc2cc(-c3c(C4CCCCC4)c4ccc(C(=O)O)cc4n3CC(=O)N3CCOCC3)ccc2n1 [Compound 229, 3-Cyclohexyl-2-[2-(3-methyl-thiophen-2-yl)-quinolin-6-yl]-1-(2-morpholin-4-yl-2-oxo-ethyl)-1H-indole-6-carboxylic acid] |
| 99.8 |  | O=C(O)c1ccc2c(C3CCCCC3)c(-c3ccc4ncc(-c5ccccc5)nc4c3)n(CC(=O)N3CCOCC3)c2c1 [Compound 329, 3-Cyclohexyl-1-(2-morpholin-4-yl-2-oxo-ethyl)-2-(3-phenyl-quinoxalin-6-yl)-1H-indole-6-carboxylic acid] |
| 95 |  | Cc1ccc(-c2ccc3cc(-c4c(C5CCCCC5)c5ccc(C(=O)O)cc5n4CC(=O)N4CCOCC4)ccc3n2)cc1 [Compound 252, 3-Cyclohexyl-1-(2-morpholin-4-yl-2-oxo-ethyl)-2-(2-p-tolyl-quinolin-6-yl)-1H-indole-6-carboxylic acid] |
| 96.3 |  | O=C(O)c1ccc2c(C3CCCCC3)c(-c3ccc4nc(-c5ccc(F)cc5)ccc4c3)n(CC(=O)N3CCOCC3)c2c1 [Compound 265, 3-Cyclohexyl-2-[2-(4-fluoro-phenyl)-quinolin-6-yl]-1-(2-morpholin-4-yl-2-oxo-ethyl)-1H-indole-6-carboxylic acid] |
| 96.9 |  | O=C(O)c1ccc2c(C3CCCCC3)c(-c3ccc4nc(-c5cccc(OC(F)(F)F)c5)ccc4c3)n(CC(=O)N3CCOCC3)c2c1 [Compound 246, 3-Cyclohexyl-1-(2-morpholin-4-yl-2-oxo-ethyl)-2-[2-(3-trifluoromethoxy-phenyl)-quinolin-6-yl]-1H-indole-6-carboxylic acid] |
| 96.3 |  | O=C(O)c1ccc2c(C3CCCCC3)c(-c3ccc4ncc(-c5ccccc5)cc4c3)n(CC(=O)N3CCOCC3)c2c1 [Compound 327, 3-Cyclohexyl-1-(2-morpholin-4-yl-2-oxo-ethyl)-2-(3-phenyl-quinolin-6-yl)-1H-indole-6-carboxylic acid] |
| 100 |  | O=C(O)c1ccc2c(C3CCCCC3)c(-c3ccc(-c4ccccc4)cc3)n(CC(=O)N3CCOCC3)c2c1 [Compound 332, 2-Biphenyl-4-yl-3-cyclohexyl-1-(2-morpholin-4-yl-2-oxo-ethyl)-1H-indole-6-carboxylic acid] |
| 95.7 |  | COc1ccccc1-c1ccc2cc(-c3c(C4CCCCC4)c4ccc(C(=O)O)cc4n3CC(=O)N3CCOCC3)ccc2n1 [Compound 233, 3-Cyclohexyl-2-[2-(2-methoxy-phenyl)-quinolin-6-yl]-1-(2-morpholin-4-yl-2-oxo-ethyl)-1H-indole-6-carboxylic acid] |
|  | 96.4 | O=C(O)c1ccc2c(C3CCCCC3)c(-c3ccc4nc(-c5ccccc5)ccc4c3)n(CC(=O)N3CCOCC3)c2c1 [Compound 220, 1-[N-morpholinocarbonylmethyl]-2-[2-phenylquinolin-6-yl]-3-cyclohexyl-1H-indole-6-carboxylic acid] |
| 97.3 |  | O=C(O)c1ccc2c(C3CCCCC3)c(-c3ccc4nc(-c5cccc(Br)c5)ccc4c3)n(CC(=O)N3CCOCC3)c2c1 [Compound 262, 2-[2-(3-Bromo-phenyl)-quinolin-6-yl]-3-cyclohexyl-1-(2-morpholin-4-yl-2-oxo-ethyl)-1H-indole-6-carboxylic acid] |

— patent US20060211698A1, “Bicyclic heteroaryl derivatives for treating viruses” (Genelabs, Inc., priority 2005, published 2006)
